Laboratory results published in PubChem BioAssay (NCI).
Values joined by “and” are separate entries in the source; they are usually repeats but may differ in a detail not shown here. Equal values may be shown once.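 Where inhibition never reached the appropriate level, the endpoint shown equals the highest concentration tested. Otherwise, values were interpolated linearly from a five-concentration, 48-hour dose response in 96-well plates. GI50: concentration for 50% inhibition of growth. TGI is the concentration that stops growth completely.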

Assays:
Assay in all cases: NCI-60 cell line screen, 48 h
[1] = test system: NCI-H23 lung
[2] = test system: IGROV1 ovarian
[3] = test system: SW-620 colon
[4] = test system: OVCAR-3 ovarian
[5] = test system: UO-31 renal
[6] = test system: SK-MEL-28 melanoma
[7] = test system: ACHN renal
[8] = test system: RXF 393 renal
[9] = test system: A549 NSCLC
[10] = test system: NCI-H522 lung
[11] = test system: U251 CNS
[12] = test system: CAKI-1 renal
[13] = test system: UACC-257 melanoma
[14] = test system: T-47D breast
[15] = test system: HS 578T breast

Row | Structure (SMILES) | TGI [1] | TGI [2] | TGI [3] | TGI [4] | TGI [5] | TGI [6] | TGI [7] | TGI [8] | TGI [9] | TGI [10] | TGI [11] | TGI [12] | TGI [13] | TGI [14] | GI50 [10] | TGI [15]
1 | C/C(=C\CC/C=C(\C)CC/C=C(\C)CCC1SC1(C)C)CC/C=C(\C)CCC1OC1(C)C (configuration not stated) | > 100 µM | > 100 µM | > 100 µM | > 100 µM | > 100 µM | > 100 µM | > 100 µM | > 100 µM | > 100 µM | > 100 µM | > 100 µM | > 100 µM |  |  |  | 
2 | COc1nc2c(c(=O)[nH]1)N=C(c1ccc(Cl)cc1)CC(c1ccccc1)N2 (configuration not stated) | > 100 µM | > 100 µM | > 100 µM | > 100 µM | > 100 µM | 54.1 µM | 52.3 µM | 61.4 µM | > 100 µM | 48.6 µM | > 100 µM | 66.2 µM | > 100 µM |  |  | 
3 | C[C@]12CC[C@H](O)CC1=CC[C@@H]1[C@@H]2CC[C@]2(C)NC(=O)/C(=C\c3ccccc3)C[C@@H]12 | 40.7 µM | 33.8 µM | 34.6 µM | 26.2 µM | 25.8 µM | 32 µM | 43.1 µM | 27.9 µM | 33.4 µM | 23.1 µM | 30.3 µM | 73.1 µM | 48.6 µM | 47 µM |  | 
4 | CC(C)=CCOc1ccc(-c2coc3cc4c(c(O)c3c2=O)C=CC(C)(C)O4)cc1 | > 100 µM | > 100 µM | > 100 µM | > 100 µM | > 100 µM | > 100 µM | > 100 µM | > 100 µM | > 100 µM | 38.9 µM | > 100 µM |  | > 100 µM |  |  | 
5 | COC(=O)CNC(=O)CSc1nnc(COc2ccc(Cl)cc2)n1-c1ccccc1 | > 100 µM | 54 µM | > 100 µM | > 100 µM | 77.3 µM | 81.3 µM | 55 µM | 51.1 µM | > 100 µM | 34.7 µM | > 100 µM | 32.2 µM | 75.8 µM | > 100 µM |  | 
6 | CC(=O)OCC1=CC2CCC3C(C)(CCC[C@]3(C)COC(C)=O)C23CC[C@H]1C3 (some centres not stated) | > 100 µM | > 100 µM | > 100 µM | > 100 µM | > 100 µM | > 100 µM | > 100 µM | 93 µM | > 100 µM | 45.4 µM | > 100 µM | > 100 µM | > 100 µM |  |  | 
7 | Cc1cc(C)c(C(=O)C(C)C(c2ccccc2)c2ccc(Cl)cc2)c(C)c1 (configuration not stated) | > 100 µM | > 100 µM | > 100 µM | > 100 µM | > 100 µM | > 100 µM | > 100 µM | > 100 µM | > 100 µM | > 100 µM and 65.5 µM | > 100 µM | > 100 µM | > 100 µM |  | > 100 µM and 15.9 µM | 
8 | CC1OC(CC2C=CCc3c(O)c4c(c(O)c32)C(=O)c2ccccc2C4=O)CC(NC(=O)C(F)(F)F)C1O (configuration not stated) | 20.7 µM | 44.6 µM | 81.5 µM | 19.2 µM | 42.7 µM | 16.1 µM | 25.1 µM | 7.77 µM |  | 44.9 µM | 15.4 µM | 20.7 µM | 26.8 µM |  |  | 
9 | CCCCCCCCCCCCCCCCCCOCC(O)CO (configuration not stated) | > 25 µM | > 23.7 µM | > 17 µM | > 25 µM | 25 µM | > 25 µM |  | > 24.1 µM | 5.32 µM | 20.9 µM | > 25 µM | > 5.39 µM | > 25 µM |  |  | 
10 | CCN1C/C(=C\c2ccc(Cl)cc2)c2[nH]c(=O)c(C#N)c(-c3ccc(Cl)cc3)c2C1 | > 100 µM | > 100 µM | > 100 µM | > 100 µM |  | > 100 µM | > 100 µM | > 100 µM | > 100 µM |  | > 100 µM |  | > 100 µM | > 100 µM |  | 
11 | CC(O)C1OC(n2ccc(=O)[nH]c2=O)CC1n1cncn1 (configuration not stated) | > 100 µM | > 100 µM | > 100 µM | > 100 µM | > 100 µM | > 100 µM | > 100 µM | > 100 µM | > 100 µM | > 100 µM | > 100 µM | > 100 µM | > 100 µM |  |  | 
12 | COC1(C)CNCC(C)(C)NC(=O)C(C)(OC)CNCC(C)(C)NC1=O (configuration not stated) | > 100 µM | > 100 µM | > 100 µM | > 100 µM | > 100 µM | > 100 µM | > 100 µM | > 100 µM | > 100 µM | > 100 µM | > 100 µM | > 100 µM | > 100 µM |  |  | 
13 | CC(C)(C)OC(=O)C1/C(=C/CBr)CN1C(=O)OC(C)(C)C (configuration not stated) | 28.8 µM | 26.2 µM | 19.4 µM | 28.6 µM | 33.1 µM | 46.9 µM | 33 µM |  | 38 µM |  |  | 30.5 µM | 32.3 µM |  |  | 49.1 µM
14 | CCOC(OC1=C(C#N)CCCC1)C(CC)[Se]c1ccccc1[N+](=O)[O-] (configuration not stated) | 31.3 µM | 72 µM |  | 95.4 µM | 80.5 µM | 89.9 µM | 80.7 µM | 65.7 µM | > 100 µM | 30.9 µM | 30.9 µM | > 100 µM | > 100 µM |  |  | 
15 | CC(=O)OCC1OC(n2c(O)c(N=NC(N)=S)c3ccc([N+](=O)[O-])cc32)C(OC(C)=O)C1OC(C)=O (configuration not stated) | 42.1 µM | > 100 µM | > 100 µM | 63.9 µM |  | > 100 µM | > 100 µM | 45.9 µM | > 100 µM | 31.4 µM | 87.6 µM | > 100 µM | > 100 µM |  |  | 
16 | O=C1c2c(O)cccc2Cc2cc(CO)cc(O)c21 | 6.06 µM | 20.1 µM | > 100 µM | 5.03 µM | 4.97 µM | 27.3 µM | 12.4 µM |  | 9.08 µM |  | 10.7 µM |  | 5.64 µM | 11.9 µM |  | 
17 | CN1CCN(Cc2ccccc2)CC1CC#N (configuration not stated) | > 100 µM | > 100 µM | > 100 µM | > 100 µM | > 100 µM | > 100 µM | > 100 µM | > 100 µM | > 100 µM |  | > 100 µM | > 100 µM | > 100 µM | > 100 µM |  | 
